For the experiment, the target named is Wild Type HPK1 (MAP4K1) Kinase (Homo sapiens (Human), UniProt Q92918). Put plainly: HPK1 Assay (Caliper EZ reader, fluorescein tagged peptide substrate). Type of experiment: biochemical. The conditions noted are these: ATP 500 micromolar, kinase 6 nM, pH 7.4. As to the method: The enzymatic activity of Wild Type HPK1 (MAP4K1) Kinase was measured in the presence or absence of an inhibitor compound of the present disclosure by preparation of a reaction mixture containing a fluorescein tagged peptide (2 micromolar final concentration), ATP (Adenosine Triphosphate, 500 micromolar final concentration) and Wild Type kinase (6 nM final concentration) in a buffer system comprising 50 mM HEPES (Buffer), 3 mM MgCl2, 5% w/v Trehalose, 0.01% Brij 35 (Detergent), 0.1% Pluronic F127 (Surfactant), 0.1 mM EDTA (Ethylenediaminetetraacetic acid), 0.1 mM EGTA (ethylene glycol-bis(β-aminoethyl ether)-N,N,N′,N′-tetraacetic acid) and 1 mM DTT (Dithiothreitol) and at a pH of 7.4. The reactions were quenched by the addition of EDTA to a final concentration of 25 mM. A Caliper EZ reader was used to measure the extent of substrate to product conversion.
Wild Type HPK1 (MAP4K1) Kinase, sequence (Q92918 whole entry, species assumed): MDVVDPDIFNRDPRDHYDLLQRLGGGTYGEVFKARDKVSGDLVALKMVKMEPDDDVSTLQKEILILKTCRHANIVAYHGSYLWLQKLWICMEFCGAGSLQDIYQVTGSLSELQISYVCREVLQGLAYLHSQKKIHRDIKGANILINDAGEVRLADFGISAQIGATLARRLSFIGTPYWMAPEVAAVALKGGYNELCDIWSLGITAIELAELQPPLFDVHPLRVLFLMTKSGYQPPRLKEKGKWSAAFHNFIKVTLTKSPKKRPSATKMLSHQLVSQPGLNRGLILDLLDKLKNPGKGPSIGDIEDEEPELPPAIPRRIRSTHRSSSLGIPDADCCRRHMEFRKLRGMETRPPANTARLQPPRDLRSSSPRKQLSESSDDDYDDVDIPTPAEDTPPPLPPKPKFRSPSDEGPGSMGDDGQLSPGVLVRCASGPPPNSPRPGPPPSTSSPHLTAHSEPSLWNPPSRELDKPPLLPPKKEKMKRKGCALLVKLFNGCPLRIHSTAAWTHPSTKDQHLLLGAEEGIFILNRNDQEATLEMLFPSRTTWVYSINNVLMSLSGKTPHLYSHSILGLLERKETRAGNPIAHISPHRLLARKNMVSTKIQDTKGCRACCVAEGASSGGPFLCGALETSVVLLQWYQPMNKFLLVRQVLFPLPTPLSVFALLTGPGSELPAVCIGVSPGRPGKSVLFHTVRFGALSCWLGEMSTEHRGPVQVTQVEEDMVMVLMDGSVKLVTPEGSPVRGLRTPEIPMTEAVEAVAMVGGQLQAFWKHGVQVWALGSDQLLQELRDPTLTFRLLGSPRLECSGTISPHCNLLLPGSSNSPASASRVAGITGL
The peptide substrate used in the HPK1 assay was designed based on the amino acid sequence surrounding serine residue 376 of SLP76-Lymphocyte cytosolic protein 2 (a known intracellular substrate of HPK1). This sequence SSFPQSAsLPPYFSQ was modified as follows for use in Caliper assays of HPK1: the serine residues on either side of serine 376 were replaced with alanine, three lysine residues were added at the […] and a fluorescein tag (FAM) was attached to the […] to produce the sequence, FAM-FPQAAsLPPYFAKKK.

`COc1cc2c(cc1Nc1ncc(OC)c(Nc3ccccc3P(C)(C)=O)n1)CN(C)CC2` [Example I-23, (2-((5-methoxy-2-((6-methoxy-2-methyl-1,2,3,4-tetrahydroisoquinolin-7-yl)amino)pyrimidin-4-yl)amino)phenyl)dimethylphosphine oxide] returned an IC50 of 5 to 10 nM.
For `CCN1CCc2cc(OC)c(Nc3ncc(Cl)c(Nc4ccccc4P(C)(C)=O)n3)cc2C1` [Example I-12, (2-((5-chloro-2-((2-ethyl-6-methoxy-1,2,3,4-tetrahydroisoquinolin-7-yl)amino)pyrimidin-4-yl)amino)phenyl)dimethylphoshine oxide] the value was under 5 nM; for `CNC(=O)c1ccccc1Nc1nc(Nc2cc3c(cc2OC)CCN(C)C3)ncc1Cl` [II-3, 2-((5-chloro-2-((6-methoxy-2-methyl-1,2,3,4-tetrahydroisoquinolin-7-yl)amino)pyrimidin-4-yl)amino)-N-methylbenzamide], 5 to 10 nM.
For `COc1cc2c(cc1Nc1ncc(Cl)c(Nc3ccccc3P(C)(C)=O)n1)CCCN(C)C2` [Example I-4, (2-((5-chloro-2-((8-methoxy-2-methyl-2,3,4,5-tetrahydro-1H-benzo[c]azepin-7-yl)amino)pyrimidin-4-yl)amino)phenyl)dimethylphosphine oxide] the value was 10 to 100 nM; for `COc1cc2c(cc1Nc1ncc(Cl)c(Nc3ccccc3P(C)(C)=O)n1)[C@@H](N(C)C)CCC2` [Example I-15, (S)-(2-((5-chloro-2-((8-(dimethylamino)-3-methoxy-5,6,7,8-tetrahydronaphthalen-2-yl)amino)pyrimidin-4-yl)amino)phenyl)dimethylphosphine oxide], 100 to 10000 nM; for `COc1cc2c(cc1Nc1ncc(Cl)c(Nc3ccccc3S(=O)(=O)N(C)C)n1)CN(C)CC2` [II-2, 2-((5-chloro-2-((6-methoxy-2-methyl-1,2,3,4-tetrahydroisoquinolin-7-yl)amino)pyrimidin-4-yl)amino) N,N-dimethylbenzenesulfonamide], under 5 nM.
`COc1cc2c(cc1Nc1ncc(Br)c(Nc3ccccc3P(C)(C)=O)n1)CN(C)CC2` [Example I-22, (2-((5-bromo-2-((6-methoxy-2-methyl-1,2,3,4-tetrahydroisoquinolin-7-yl)amino)pyrimidin-4-yl)amino)phenyl)dimethylphosphine oxide] registered an IC50 of under 5 nM.
For `COc1cc2c(cc1Nc1ncc(Cl)c(Nc3ccccc3P(C)(C)=O)n1)[C@@H](N(C)C)CC2` [Example I-16, (S)-(2-((5-chloro-2-((3-(dimethylamino)-6-methoxy-2,3-dihydro-1H-inden-5-yl)amino)pyrimidin-4-yl)amino)phenyl)dimethylphosphine oxide], the IC50 lay within 100 to 10000 nM.
`COc1cc2c(cc1Nc1ncc(Cl)c(Nc3ccccc3P(C)(C)=O)n1)CN(C)CC2(C)C` [Example I-44, (2-((5-chloro-2-((6-methoxy-2,4,4-trimethyl-1,2,3,4-tetrahydroisoquinolin-7-yl)amino)pyrimidin-4-yl)amino)phenyl)-dimethylphosphine oxide] came in with an IC50 of 5 to 10 nM.
For `CCc1cnc(Nc2cc3c(cc2OC)CCN(C)C3)nc1Nc1ccccc1P(C)(C)=O` [Example I-48, (2-((5-Ethyl-2-((6-methoxy-2-methyl-1,2,3,4-tetrahydroisoquinolin-7-yl)amino)pyrimidin-4-yl)amino)phenyl)dimethylphosphine oxide] the value was 5 to 10 nM; for `CN1CCc2cc(F)c(Nc3ncc(Cl)c(Nc4ccccc4P(C)(C)=O)n3)cc2C1` [Example I-5, (2-((5-chloro-2-((6-fluoro-2-methyl-1,2,3,4-tetrahydroisoquinolin-7-yl)amino)pyrimidin-4-yl)amino)phenyl)dimethylphosphine oxide], under 5 nM.
`COc1cc2c(cc1Nc1ncc(Cl)c(Nc3ccccc3P(C)(C)=O)n1)CN(C)CC2` [Example I-2, (2-((5-chloro-2-((6-methoxy-2-methyl-1,2,3,4-tetrahydroisoquinolin-7-yl)amino)pyrimidin-4-yl)amino)phenyl)dimethylphosphine oxide] registered an IC50 of under 5 nM.
`COc1cc2c(cc1Nc1ncc(Cl)c(Nc3ccccc3P(C)(C)=O)n1)CN(C)CCC2` [Example I-35, (2-((5-chloro-2-((7-methoxy-2-methyl-2,3,4,5-tetrahydro-1H-benzo[c]azepin-8-yl)amino)pyrimidin-4-yl)amino)phenyl)dimethylphosphine oxide] displayed an IC50 of 100 to 10000 nM.
For `COc1cc2c(cc1Nc1ncc(Cl)c(Nc3ccccc3P(C)(C)=O)n1)[C@H](N(C)C)CCC2` [Example I-13, (R)-(2-((5-chloro-2-((8-(dimethylamino)-3-methoxy-5,6,7,8-tetrahydronaphthalen-2-yl)amino)pyrimidin-4-yl)amino)phenyl)dimethylphosphine oxide] the value was 10 to 100 nM; for `COc1cc2c(cc1Nc1ncc(Cl)c(Nc3ccccc3P(C)(C)=O)n1)CNCC2` [Example I-41, (2-((5-chloro-2-((6-methoxy-1,2,3,4-tetrahydroisoquinolin-7-yl)amino)pyrimidin-4-yl)amino)phenyl)dimethylphosphine oxide], under 5 nM; for `CCOc1cc2c(cc1Nc1ncc(Cl)c(Nc3ccccc3P(C)(C)=O)n1)CN(C)CC2` [Example I-36, (2-((5-chloro-2-((6-ethoxy-2-methyl-1,2,3,4-tetrahydroisoquinolin-7-yl)amino)pyrimidin-4-yl)amino)phenyl)dimethylphosphine oxide], 10 to 100 nM.
For `COc1cc2c(cc1Nc1ncc(F)c(Nc3ccccc3P(C)(C)=O)n1)CN(C)CC2` [Example I-26, (2-((5-fluoro-2-((6-methoxy-2-methyl-1,2,3,4-tetrahydroisoquinolin-7-yl)amino)pyrimidin-4-yl)amino)phenyl)dimethylphosphine oxide] the value was 10 to 100 nM; for `COc1cc2c(cc1Nc1ncc(Cl)c(Nc3ccccc3P(C)(C)=O)n1)CC(N(C)C)C2` (centres unmarked) [Example I-17, (2-((5-chloro-2-((2-(dimethylamino)-6-methoxy-2,3-dihydro-1H-inden-5-yl)amino)pyrimidin-4-yl)amino)phenyl)dimethylphosphine oxide], 10 to 100 nM; for `COc1cc2c(cc1Nc1ncc(Cl)c(Nc3ccccc3P(C)(C)=O)n1)C(=O)N(C)CCC2` [Example I-34, 8-((5-chloro-4-((2-(dimethylphosphoryl)phenyl)amino)pyrimidin-2-yl)amino)-7-methoxy-2-methyl-2,3,4,5-tetrahydro-1H-benzo[c]azepin-1-one], 100 to 10000 nM.
Turning to `CN1CCc2cc(C(F)(F)F)c(Nc3ncc(Cl)c(Nc4ccccc4P(C)(C)=O)n3)cc2C1` [Example I-45, (2-((5-chloro-2-((2-methyl-6-(trifluoromethyl)-1,2,3,4-tetrahydroiso-quinolin-7-yl)amino)-pyrimidin-4-yl)-amino)phenyl)dimethylphosphine oxide], the concentration for half-maximal inhibition (IC50) lay within 100 to 10000 nM.

The record behind these values is patent publication US11180482B2, “Anilinopyrimidines as haematopoietic progenitor kinase 1 (HPK1) inhibitors” (Ariad Pharmaceuticals, Inc., priority 2016, dated 2021).
